Patent publication US9655942B2, “Medical formulation for treating hypercholesterolemia” (priority 2012, dated 2017)

How the values were obtained:
[1] = tested on: patients suffering from increased low density lipoprotein (LDL) levels; test: Example 2: blood level effects (cholesterol, HDL, LDL, non-HDL, risk factor, triglycerides) after three months; format: in vivo, human; details: for HDL / LDL / Non-HDL cholesterol / Total cholesterol / Triglycerides: group value; for Risk factor: total cholesterol blood level divided by HDL blood level
Protocol: Especially, the present invention relates to the present medical formulations for recuperation of vascular walls, lowering low density lipoprotein blood levels, lowering the viscosity of blood, lowering blood pressure, and/or increasing high density lipoprotein levels. Preferably, the present invention relates to the present medical formulation for reducing the risk factor in humans, or patients, at risk of hypercholesterolemia, wherein the risk factor is determined by the total cholesterol blood level divided by the HDL blood level.
(§1) As control, group 1 of 5 patients suffering from increased low density lipoprotein (LDL) levels were treated for three months with a formulation comprising, as daily dose 11.40 mg extract of lovastatin.
(§2) A group 2 of 14 patients suffering from increased low density lipoprotein (LDL) levels were treated for three months with a formulation comprising, as daily dose: • 4.80 mg bark extract of cinnamomum zeylanicum; • 24.20 mg fibre extract of Pinus pinaster; • 24.00 mg bark extract Saccharum officinarum; • 11.40 mg lovastatin; • 1.2 mg leave extract of Taraxacum officinale; • 16 mg leave extract of Camellia sinensis; • 20 mg nicotinamide; • 14 mg 50% alpha tocopherol; • 60 mg coenzyme Q10; • 37.80 mg fish oil comprising 19.2 wt % eicosapentaenoic acid and 12.9 wt % docosahexanoic acid; • 60.00 mg beta-glucan; and • 1 mg cholecalciferol.
(§3) The above ingredients were divided in two capsules for daily intake. The capsules were composed of gelatin. One capsule was taken during breakfast; the other was taken during dinner.

[2] = tested on: patients suffering from increased low density lipoprotein (LDL) levels; test: Example 2: blood pressure after three months; format: in vivo, human
Protocol: as §1, §2, §3

What does the source list for `CC[C@H](C)C(=O)O[C@H]1C[C@@H](C)C=C2C=C[C@H](C)[C@H](CC[C@@H]3C[C@@H](O)CC(=O)O3)[C@H]21` [lovastatin]?
HDL Δ ([1]; change T = 0 to T = 3 months): -4.0 mg/dL; LDL Δ ([1]; change T = 0 to T = 3 months): -23.0 mg/dL; Non-HDL cholesterol Δ ([1]; change T = 0 to T = 3 months): -28.0 mg/dL; Risk factor Δ ([1]; change T = 0 to T = 3 months): -0.41; Total cholesterol Δ ([1]; change T = 0 to T = 3 months): -26.2 mg/dL; Triglycerides Δ ([1]; change T = 0 to T = 3 months): -19 mg/dL; HDL ([1]; T = 0 (before treatment)): 72.0 mg/dL; LDL ([1]; T = 0 (before treatment)): 96.2 mg/dL; Non-HDL cholesterol ([1]; T = 0 (before treatment)): 129.4 mg/dL; Total cholesterol ([1]; T = 0 (before treatment)): 201.4 mg/dL; Triglycerides ([1]; T = 0 (before treatment)): 165.8 mg/dL; HDL ([1]; T = 3 (three months treatment)): 68.0 mg/dL; LDL ([1]; T = 3 (three months treatment)): 73.2 mg/dL; Non-HDL cholesterol ([1]; T = 3 (three months treatment)): 101.4 mg/dL; Total cholesterol ([1]; T = 3 (three months treatment)): 175.2 mg/dL; Triglycerides ([1]; T = 3 (three months treatment)): 146.8 mg/dL; reduction of risk factor ([1]; three months treatment, stated as size of reduction): 0.41; Risk factor ([1]; T = 0 (before treatment)): 2.91; Risk factor ([1]; T = 3 (three months treatment)): 2.5; Diastolic ([2]; T = 0 (before treatment)): 79.2 mmHg; Systolic ([2]; T = 0 (before treatment)): 120.0 mmHg; Diastolic ([2]; T = 3 (three months treatment)): 79.1 mmHg; Systolic ([2]; T = 3 (three months treatment)): 130.0 mmHg; Diastolic Δ ([2]; change T = 0 to T = 3 months): −0.1 mmHg
